Biological target: DNA from salmon sperm
Experiment: UV-Vis spectrophotometric titration of (pillar[5]arene-DNA) associates with GIS
Format: binding
Details: 1:1 composition, Tris-HCl buffer, CPA 3 × 10^–6 M, CDNA 2.5 × 10^–7 M, GIS 1:0.3 to 1:10
Text: It is well known that water-soluble derivatives of pillar[5]arene can applicate as antidotes for various drugs. The interaction of GIS with DNA with a logarithm of the association constant of 4.92 was shown. […] In this regard, a hypothesis about the possibility of using the synthesized macrocycles as a glyphosate antidote for DNA protection was proposed. Therefore, the behavior of the associate (macrocycle-DNA) with GIS was studied by UV-Vis spectroscopy to test the hypothesis above. First, a solution of DNA (2.5 × 10^–7 M) was added to the macrocycle (1–4) solution (3 × 10^–6 M). Then the herbicide solution (CGIS = 3 × 10^–6 M) was added to the resulting associate, and the absorption spectrum of the resulting ternary system was recorded. […]
Further, the interaction of the (pillar[5]arene–DNA) associated with GIS was quantified (Figure 7c,d and Figure S28). […] The effective association constants of the (macrocycle-DNA)-GIS associates of 1:1 composition were calculated (Table 2). […]
buffer solution. The UV spectra of the solutions were then recorded. The stability constant of complex was calculated by Bindfit. […]
volume of 3 mL with Tris‐HCl buffer solution. The UV spectra of the solutions were then recorded. The stability constant of each complex was calculated by Bindfit. […]
stability constant of complex was calculated by Bindfit. […]

lgKa of (pillar[5]arene-DNA) associate with GIS (listed as betaine pillar[5]arene containing fragments of L-Phe): 3.60
Structure (SMILES): C[N+](C)(CCCNC(=O)COc1cc2c(OCC(=O)NCCC[N+](C)(C)CC(=O)N[C@@H](Cc3ccccc3)C(=O)[O-])cc1Cc1cc(OCC(=O)NCCC[N+](C)(C)CC(=O)N[C@@H](Cc3ccccc3)C(=O)[O-])c(cc1OCC(=O)NCCC[N+](C)(C)CC(=O)N[C@@H](Cc1ccccc1)C(=O)[O-])Cc1cc(OCC(=O)NCCC[N+](C)(C)CC(=O)N[C@@H](Cc3ccccc3)C(=O)[O-])c(cc1OCC(=O)NCCC[N+](C)(C)CC(=O)N[C@@H](Cc1ccccc1)C(=O)[O-])Cc1cc(OCC(=O)NCCC[N+](C)(C)CC(=O)N[C@@H](Cc3ccccc3)C(=O)[O-])c(cc1OCC(=O)NCCC[N+](C)(C)CC(=O)N[C@@H](Cc1ccccc1)C(=O)[O-])Cc1cc(OCC(=O)NCCC[N+](C)(C)CC(=O)N[C@@H](Cc3ccccc3)C(=O)[O-])c(cc1OCC(=O)NCCC[N+](C)(C)CC(=O)N[C@@H](Cc1ccccc1)C(=O)[O-])C2)CC(=O)N[C@@H](Cc1ccccc1)C(=O)[O-] [Compound 4, 4,8,14,18,23,26,28,31,32,35-Decakis-[(N-[3’-dimethyl({oxidocarbonyl[S-benzyl]methyl}aminocarbonylmethyl)ammonio]propyl)aminocarbonylmethoxy]-pillar[5]arene]
lgKa of (pillar[5]arene-DNA) associate with GIS: decrease in lgKa by more than an order of magnitude

Reference: paper PMC10179701, “Towards Protection of Nucleic Acids from Herbicide Attack: Self-Assembly of Betaines Based on Pillar[5]arene with Glyphosate and DNA” (International Journal of Molecular Sciences, 2023)
